In data set [1] the target is T1, Sodium channel protein type 9 subunit alpha (Homo sapiens, UniProt Q15858). Nature of the data set: Inhibition of human Nav1.7 at -60 mV holding potential by cell-based IonWorks barracuda automated electrophysiology method. A general note: Patch clamp records ionic current or voltage across a cell membrane.
Target sequence in this assay (Q15858 whole entry): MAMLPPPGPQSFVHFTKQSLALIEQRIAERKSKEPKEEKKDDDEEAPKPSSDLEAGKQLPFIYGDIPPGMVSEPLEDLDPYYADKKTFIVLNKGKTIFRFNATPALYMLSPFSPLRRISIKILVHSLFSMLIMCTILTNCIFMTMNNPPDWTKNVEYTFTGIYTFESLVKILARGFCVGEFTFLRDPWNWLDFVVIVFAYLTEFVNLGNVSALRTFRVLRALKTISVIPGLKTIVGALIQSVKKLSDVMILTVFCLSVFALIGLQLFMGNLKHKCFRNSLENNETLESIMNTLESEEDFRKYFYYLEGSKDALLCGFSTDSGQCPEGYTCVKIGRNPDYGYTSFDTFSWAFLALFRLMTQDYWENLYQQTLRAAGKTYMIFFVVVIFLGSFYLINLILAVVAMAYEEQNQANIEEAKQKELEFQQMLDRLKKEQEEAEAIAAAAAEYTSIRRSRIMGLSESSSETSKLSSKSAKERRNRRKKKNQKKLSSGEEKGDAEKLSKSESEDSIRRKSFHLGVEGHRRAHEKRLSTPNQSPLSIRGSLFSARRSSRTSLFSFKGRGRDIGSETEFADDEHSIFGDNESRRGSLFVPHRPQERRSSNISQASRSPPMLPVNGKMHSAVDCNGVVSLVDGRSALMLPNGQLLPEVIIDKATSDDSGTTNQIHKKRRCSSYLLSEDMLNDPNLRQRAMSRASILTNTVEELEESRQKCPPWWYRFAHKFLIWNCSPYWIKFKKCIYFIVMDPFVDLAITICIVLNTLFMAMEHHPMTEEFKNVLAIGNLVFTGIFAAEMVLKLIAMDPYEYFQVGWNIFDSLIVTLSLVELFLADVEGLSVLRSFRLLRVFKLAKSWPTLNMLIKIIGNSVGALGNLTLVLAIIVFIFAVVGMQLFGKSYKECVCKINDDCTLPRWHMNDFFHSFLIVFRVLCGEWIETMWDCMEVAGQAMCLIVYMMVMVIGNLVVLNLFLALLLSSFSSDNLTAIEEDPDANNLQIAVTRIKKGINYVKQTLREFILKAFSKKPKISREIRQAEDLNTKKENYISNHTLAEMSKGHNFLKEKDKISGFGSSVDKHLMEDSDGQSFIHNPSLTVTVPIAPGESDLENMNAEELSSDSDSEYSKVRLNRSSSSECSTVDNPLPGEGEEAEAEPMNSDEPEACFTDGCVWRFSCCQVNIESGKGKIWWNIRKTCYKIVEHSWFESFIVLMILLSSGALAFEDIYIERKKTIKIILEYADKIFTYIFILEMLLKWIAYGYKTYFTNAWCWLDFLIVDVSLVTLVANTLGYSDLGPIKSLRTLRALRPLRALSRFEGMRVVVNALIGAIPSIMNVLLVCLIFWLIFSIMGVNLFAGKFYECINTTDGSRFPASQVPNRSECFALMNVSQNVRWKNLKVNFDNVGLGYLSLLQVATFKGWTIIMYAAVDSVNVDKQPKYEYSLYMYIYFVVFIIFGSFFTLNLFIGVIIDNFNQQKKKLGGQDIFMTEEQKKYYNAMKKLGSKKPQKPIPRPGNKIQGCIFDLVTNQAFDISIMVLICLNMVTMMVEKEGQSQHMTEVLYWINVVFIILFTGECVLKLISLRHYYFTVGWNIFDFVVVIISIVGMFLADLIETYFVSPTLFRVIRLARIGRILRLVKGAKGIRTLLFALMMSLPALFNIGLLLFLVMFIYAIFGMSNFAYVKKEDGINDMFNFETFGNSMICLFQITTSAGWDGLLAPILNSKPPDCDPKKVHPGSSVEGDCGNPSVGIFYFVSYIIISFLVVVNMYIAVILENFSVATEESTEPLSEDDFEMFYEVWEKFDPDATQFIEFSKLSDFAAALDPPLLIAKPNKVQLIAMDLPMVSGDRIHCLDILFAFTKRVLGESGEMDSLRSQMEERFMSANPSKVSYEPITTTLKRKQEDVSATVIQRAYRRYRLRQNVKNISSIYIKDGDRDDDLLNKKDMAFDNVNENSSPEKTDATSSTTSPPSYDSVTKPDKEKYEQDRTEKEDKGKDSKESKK
The target of data set [2] is Sodium channel protein type 5 subunit alpha (Homo sapiens, UniProt Q14524). Nature of the data set: Inhibition of human Nav1.5 at -50 mV holding potential by cell-based IonWorks barracuda automated electrophysiology method. It is filed as ADME.
Chain of Sodium channel protein type 5 subunit alpha (Q14524 whole entry): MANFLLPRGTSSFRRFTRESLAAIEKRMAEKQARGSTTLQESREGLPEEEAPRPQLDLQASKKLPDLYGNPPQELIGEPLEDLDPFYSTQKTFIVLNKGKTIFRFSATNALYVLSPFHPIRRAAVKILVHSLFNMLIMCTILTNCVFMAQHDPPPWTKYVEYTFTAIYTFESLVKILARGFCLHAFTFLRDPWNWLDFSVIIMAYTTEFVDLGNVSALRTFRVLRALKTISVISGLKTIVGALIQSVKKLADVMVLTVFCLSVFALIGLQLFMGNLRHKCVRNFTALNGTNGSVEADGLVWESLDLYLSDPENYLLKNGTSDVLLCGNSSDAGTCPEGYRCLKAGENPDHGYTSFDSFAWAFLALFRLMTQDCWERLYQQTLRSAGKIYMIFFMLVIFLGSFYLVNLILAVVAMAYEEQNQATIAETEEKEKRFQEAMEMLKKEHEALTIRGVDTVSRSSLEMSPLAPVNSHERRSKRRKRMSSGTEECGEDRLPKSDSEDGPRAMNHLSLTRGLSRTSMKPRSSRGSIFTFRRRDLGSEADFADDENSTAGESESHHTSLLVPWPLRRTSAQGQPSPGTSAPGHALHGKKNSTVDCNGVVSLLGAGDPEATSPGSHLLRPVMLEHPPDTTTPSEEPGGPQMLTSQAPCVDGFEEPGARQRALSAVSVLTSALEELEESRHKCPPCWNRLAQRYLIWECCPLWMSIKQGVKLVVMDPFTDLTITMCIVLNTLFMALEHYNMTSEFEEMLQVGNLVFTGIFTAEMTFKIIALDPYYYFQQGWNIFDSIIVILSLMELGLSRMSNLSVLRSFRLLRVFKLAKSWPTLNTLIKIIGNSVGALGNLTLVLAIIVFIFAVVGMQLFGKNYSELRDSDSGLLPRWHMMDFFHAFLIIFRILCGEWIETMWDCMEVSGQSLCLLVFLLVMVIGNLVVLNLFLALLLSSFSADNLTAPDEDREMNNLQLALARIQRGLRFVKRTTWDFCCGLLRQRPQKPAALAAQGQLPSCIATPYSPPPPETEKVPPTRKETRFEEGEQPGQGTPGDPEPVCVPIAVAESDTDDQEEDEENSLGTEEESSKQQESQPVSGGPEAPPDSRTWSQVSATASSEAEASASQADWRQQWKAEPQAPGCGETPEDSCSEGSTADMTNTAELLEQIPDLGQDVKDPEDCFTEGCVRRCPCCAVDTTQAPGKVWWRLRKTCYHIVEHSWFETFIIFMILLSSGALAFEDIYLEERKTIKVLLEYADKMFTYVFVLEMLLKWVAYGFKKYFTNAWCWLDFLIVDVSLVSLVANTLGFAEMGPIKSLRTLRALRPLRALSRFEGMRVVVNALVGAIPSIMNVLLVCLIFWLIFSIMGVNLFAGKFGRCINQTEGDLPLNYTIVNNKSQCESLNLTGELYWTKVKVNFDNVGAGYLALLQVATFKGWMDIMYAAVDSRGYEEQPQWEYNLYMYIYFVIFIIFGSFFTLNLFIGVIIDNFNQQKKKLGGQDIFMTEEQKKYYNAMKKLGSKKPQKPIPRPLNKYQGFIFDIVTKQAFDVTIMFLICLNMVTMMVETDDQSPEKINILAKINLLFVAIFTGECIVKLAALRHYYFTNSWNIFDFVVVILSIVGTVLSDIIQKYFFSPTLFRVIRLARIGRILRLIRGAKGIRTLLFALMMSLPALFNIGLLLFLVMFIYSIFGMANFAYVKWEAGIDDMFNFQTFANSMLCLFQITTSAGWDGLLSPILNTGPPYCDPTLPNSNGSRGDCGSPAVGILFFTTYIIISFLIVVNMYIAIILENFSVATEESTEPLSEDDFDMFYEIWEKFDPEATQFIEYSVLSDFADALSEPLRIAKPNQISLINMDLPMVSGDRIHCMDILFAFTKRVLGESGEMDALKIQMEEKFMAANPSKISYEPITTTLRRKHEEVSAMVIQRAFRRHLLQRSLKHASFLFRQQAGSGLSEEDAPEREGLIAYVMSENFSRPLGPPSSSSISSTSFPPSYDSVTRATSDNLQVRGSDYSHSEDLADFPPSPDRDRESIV
For data set [3], the target named is T1, Sodium channel protein type 9 subunit alpha. The data set can be described thus: Inhibition of human Nav1.7 at -60 mV holding potential by cell-based manual patch clamp electrophysiology method.
Target sequence in this assay (Q15858 whole entry): as the sequence (Q15858 whole entry) above
For a further data set, the species on record is Homo sapiens. Nature of the data set: Selectivity ratio of IC50 for human Nav1.5 to IC50 for human Nav1.7.
Data set [4] concerns the target T1, Sodium channel protein type 9 subunit alpha. The data set can be described thus: Ratio of IC50 for human Nav1.7 at -60 mV holding potential by cell-based manual patch clamp electrophysiology method to IC50 for human Nav1.7 at -60 mV holding potential by cell-based IonWorks barracuda automated electrophysiology method.
Target sequence in this assay (Q15858 whole entry, looked up): as the sequence (Q15858 whole entry) above
Data set [5] has the same target. Nature of the data set: Ratio of IC50 for human Nav1.7 at -60 mV holding potential by cell-based IonWorks barracuda automated electrophysiology method to IC50 for human Nav1.7 at -60 mV holding potential by cell-based manual patch clamp electrophysiology method.
Target sequence in this assay (Q15858 whole entry, looked up): as the sequence (Q15858 whole entry) above
Data set [6] can be described thus: Permeability across apical to basolateral side in human Caco2 cells. Type of data set: ADME, cell-based. The settings on record: Caco-2, read-out: permeability. In general terms: Caco-2 cells form a polarised layer with tight junctions and transporters.
Data set [7] is described as follows: Permeability across basolateral to apical side in human Caco2 cells. It is filed as ADME, cell-based. The settings on record: Caco-2, read-out: permeability.
A short description of data set [8]: Efflux ratio of permeability from basolateral to apical side over apical to basolateral side in human Caco2 cells. It is filed as ADME, cell-based. The settings on record: Caco-2.
Data set [9] has as its target CYP450 (Cytochrome P450 family, isoform not stated) (Homo sapiens, UniProt P04798+P05177+P05181+P08684+P10632+P10635+P11509+P11712+P13584+P20813+P20815+P20853+P24462+P24903+P33260+P33261+P51589+P78329+P98187+Q02928+Q08477+Q16678+Q16696+Q5TCH4+Q6VVX0+Q7Z449+Q8TAV3+Q96SQ9+Q9HB55). The data set can be described thus: Inhibition of human CYP450. It is filed as ADME, protein assay.

SMILES strings stand for the structures. A value given as a limit tells only on which side of the number the result lay.

As a reminder, the IC50 is the concentration that gives 50% inhibition. Low values mean greater potency in that assay, high ones weaker potency in that assay. With `Cn1cc(C(C)(C)C)c2ccc(C(=O)NS(=O)(=O)C3CC3)cc21`, the IC50 was 1100 nM in data set [1] and more than 30000 nM in data set [2].
`Cn1cc(C2CCCCC2)c2ccc(C(=O)NS(=O)(=O)C3CC3)cc21`: the IC50 in data set [3] worked out at 55 nM; in [1] it was 42 nM; in [2] it was 2400 nM. Moreover, the Ratio IC50 in the data set filed under Homo sapiens was determined as 57.
On to `CN1CCC(c2cn(C)c3cc(C(=O)NS(=O)(=O)C4CC4)ccc23)CC1`, for which the IC50 in data set [1] and in data set [2] was more than 30000 nM each time.
With `C[C@H]1CC[C@@H](c2cn(C)c3cc(C(=O)NS(=O)(=O)C4CC4)ccc23)C1`, the IC50 in data set [1] amounted to 62 nM; in [2], 5400 nM.
With `Cn1cc(C2CCCNC2)c2ccc(C(=O)NS(=O)(=O)C3CC3)cc21` (stereo not drawn), the concentration for half-maximal inhibition (IC50) in data set [1] and in data set [2] was more than 30000 nM in each case.
Consider `Cn1ccc2ccc(C(=O)NS(=O)(=O)C3CC3)cc21`, for which the IC50 in data set [1] and in data set [2] was more than 30000 nM in each case.
`Cc1cn(C2C=CCCC2)c2ccc(C(=O)NS(=O)(=O)C3CC3)cc12` (stereo not drawn): the IC50 was 72 nM in [1] and 460 nM in [2].
Turning to `Cn1cc(C2=CCOCC2)c2ccc(C(=O)NS(=O)(=O)C3CC3)cc21`, the figures for the IC50 in data set [1] and in data set [2] were 20000 nM and more than 30000 nM, respectively.
`COc1ncc(-c2c(C3CCCCC3)c3ccc(C(=O)NS(=O)(=O)C4CC4)cc3n2C)cc1C#N` registered an IC50 in [3] of 85 nM. In other words, the double-digit nanomolar range.
As to `Cn1c(-c2ccc(C#N)nc2)c(C2CCCCC2)c2ccc(C(=O)NS(=O)(=O)C3CC3)cc21`, the IC50 in data set [3] turned out to be 366 nM; in data set [1], 123 nM. Besides, in [4], the Ratio IC50 worked out at 3.
In turn, `Cn1cc(C2CCC(C(C)(C)C)CC2)c2ccc(C(=O)NS(=O)(=O)C3CC3)cc21` (stereo not drawn) had an IC50 in [1] of 45 nM.
The compound `Cc1nn(-c2cnc(OCC3(C)CC3)c(Cl)c2)c2ccc(C(=O)NS(C)(=O)=O)cc12` yielded an IC50 in data set [3] of 8 nM.
As for `Cn1cc(C2CCCN(C(=O)OC(C)(C)C)C2)c2ccc(C(=O)NS(=O)(=O)C3CC3)cc21` (stereo not drawn), the IC50 in [1] was 388 nM; in data set [2], more than 30000 nM.
In the case of `Cn1cc(C2CCN(C(=O)OC(C)(C)C)CC2)c2ccc(C(=O)NS(=O)(=O)C3CC3)cc21`, the IC50 was 383 nM in [3], 388 nM in [1] and more than 30000 nM in data set [2].
For the compound `COc1ncc(-c2c(C3CCCCC3)c3ccc(C(=O)NS(=O)(=O)C4CC4)cc3n2C)cn1`, the IC50 in [3] worked out at 46 nM; in data set [1], 195 nM. Further, in data set [5], the Ratio IC50 was determined as 4.
The compound `Cn1cc(C2CCCCCC2)c2ccc(C(=O)NS(=O)(=O)C3CC3)cc21` registered an IC50 in data set [1] of 116 nM.
Regarding `Cn1c(-c2cnc(N3CCOCC3)nc2)c(C2CCCCC2)c2ccc(C(=O)NS(=O)(=O)C3CC3)cc21`, in data set [3], the IC50 came out at 30 nM. This counts as double-digit nanomolar.
Turning to `Cn1cc(C2C3CC4CC(C3)CC2C4)c2ccc(C(=O)NS(=O)(=O)C3CC3)cc21` (stereo not drawn), the IC50 in data set [1] came out at 79 nM; in data set [2] it was 8400 nM.
Take `O=C(NS(=O)(=O)C1CC1)c1ccc2c(C3CCCCC3)c3n(c2c1)CCCCC3=O`: the IC50 in data set [1] was found to be 1500 nM.
Turning to `Cn1c(-c2ccc(N3CCCC3)nc2)c(C2CCCCC2)c2ccc(C(=O)NS(=O)(=O)C3CC3)cc21`, the half-inhibitory concentration (IC50) in data set [3] worked out at 38 nM. In other words, the double-digit nanomolar range.
Take `Cn1cc(C2CCCC(C)(C)C2)c2ccc(C(=O)NS(=O)(=O)C3CC3)cc21` (stereo not drawn): the IC50 came out at 48 nM in data set [1] and 4100 nM in data set [2].
Broadly, the efflux ratio is a quotient of directional permeabilities that is used to spot active efflux. With `Cn1cc(C2CCCCC2)c2cc(F)c(C(=O)NS(=O)(=O)C3CC3)cc21`, the IC50 in data set [3] was 14 to 30 nM; in data set [1], 30 nM; in [2] it was more than 10000 nM; in data set [9], more than 10000 nM. The Papp A→B in data set [6] was 12.9 ×10⁻⁶ cm/s. Further, the Papp B→A in data set [7] came to 16 ×10⁻⁶ cm/s. The efflux ratio in [8] worked out at 1.2.
In turn, `O=C(NS(=O)(=O)C1CC1)c1ccc2c(C3CCCCC3)c3n(c2c1)CCCCC3O` (stereo not drawn) came in with an IC50 in data set [1] of more than 30000 nM.
As to `Cn1cc(C2C3CC4CC2CN(C4)C3)c2ccc(C(=O)NS(=O)(=O)C3CC3)cc21` (stereo not drawn), the IC50 in data set [1] and in data set [2] was more than 30000 nM throughout.
Regarding `Cn1cc(C2=CCNCC2)c2ccc(C(=O)NS(=O)(=O)C3CC3)cc21`, the IC50 in data set [1] and in data set [2] was more than 30000 nM throughout.
For the compound `Cn1cc(C2CCNCC2)c2ccc(C(=O)NS(=O)(=O)C3CC3)cc21`, the half-maximal inhibitory concentration (IC50) in data set [1] and in data set [2] was more than 30000 nM throughout.
Turning to `Cn1c(-c2ccoc2)c(C2CCCCC2)c2ccc(C(=O)NS(=O)(=O)C3CC3)cc21`, the IC50 in [1] worked out at 440 nM.
Turning to `CCC(c1cn(C)c2cc(C(=O)NS(=O)(=O)C3CC3)ccc12)C(C)(C)C` (stereo not drawn), the results for the IC50 in data set [1] and in [2] were 1200 nM and more than 30000 nM, respectively.
For `Cc1cn(C)c2cc(C(=O)NS(=O)(=O)C3CC3)ccc12`, in that order: more than 30000 nM and more than 30000 nM.
Regarding `Cn1cc(C2(C)CCCCO2)c2ccc(C(=O)NS(=O)(=O)C3CC3)cc21` (stereo not drawn), the IC50 in data set [1] and in data set [2] was more than 30000 nM each time.
Consider `C[C@@H]1CC[C@@H](c2cn(C)c3cc(C(=O)NS(=O)(=O)C4CC4)ccc23)C1`, for which the figures for the IC50 in data set [1] and in data set [2] were 509 nM and more than 30000 nM, respectively.
For `Cn1cc(C2CCC2)c2ccc(C(=O)NS(=O)(=O)C3CC3)cc21`, in that order: 360 nM and 6700 nM.
For `Cn1cc(C2=CCN(C(=O)OC(C)(C)C)CC2)c2ccc(C(=O)NS(=O)(=O)C3CC3)cc21`, the IC50 in data set [1] is 635 nM; in data set [2], more than 30000 nM.
As for `Cc1cn(C2CCCCC2)c2ccc(C(=O)NS(=O)(=O)C3CC3)cc12`, the IC50 in [1] is 37 nM; in data set [2], 13000 nM; in data set [9] it was more than 10000 nM. For the same compound, the Papp A→B in data set [6] stood at 10.6 ×10⁻⁶ cm/s. Moreover, in data set [7], the Papp B→A is 21.9 ×10⁻⁶ cm/s. Moreover, in data set [8], the efflux ratio came out at 2.1.

(Values after ChEMBL document CHEMBL4330138, “Discovery of new indole-based acylsulfonamide Nav1.7 inhibitors” (Bioorg Med Chem Lett, 2019).)
